Data as given in paper PMC6334293 (Journal of medicinal chemistry, 2018).

Tests used:
[1] = molecular target: BCL6^BTB LG; settings: read-out: KD (MST); microscale thermophoresis; cited from earlier work
[2] = molecular target: T1, BCL6^BTB (Homo sapiens, UniProt P41182, C67R/C84N/E99V)
[3] = test system: BCL6-dependent and BCL6-independent lymphoma cells; test: Differential cell killing assays, panel statements; type: cell-based, human
[4] = test system: Ly1B50; test: Growth inhibition; type: cell-based; settings: Homo sapiens, 48 h, read-out: GI50 BCL6 independent cell Ly1B50
[5] = test system: SUDHL6; test: Growth inhibition; type: cell-based, human
[6] = molecular target: T2, MIZ1 (Homo sapiens, UniProt Q13105); test: Protein-observed NMR binding to MIZ1 BTB; settings: Figure S8
T2 sequence (Q13105 1-115): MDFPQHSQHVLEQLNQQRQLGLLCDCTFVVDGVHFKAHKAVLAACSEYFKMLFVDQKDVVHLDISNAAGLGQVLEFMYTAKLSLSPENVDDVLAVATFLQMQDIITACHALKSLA

[7] = test system: OCI-Ly7; test: Growth inhibition; type: cell-based, human
[8] = molecular target: T1, BCL6^BTB; settings: NMR KD
[9] = molecular target: LRF (Homo sapiens, UniProt O95365); settings: Figure S8
[10] = molecular target: KAISO (Homo sapiens, UniProt Q86T24); settings: Figure S8
KAISO, sequence (Q86T24 1-122, species assumed): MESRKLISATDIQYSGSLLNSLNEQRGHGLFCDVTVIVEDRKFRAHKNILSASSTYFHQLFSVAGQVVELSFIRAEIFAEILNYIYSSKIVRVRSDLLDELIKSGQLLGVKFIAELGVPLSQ

LRF, sequence (O95365 1-130): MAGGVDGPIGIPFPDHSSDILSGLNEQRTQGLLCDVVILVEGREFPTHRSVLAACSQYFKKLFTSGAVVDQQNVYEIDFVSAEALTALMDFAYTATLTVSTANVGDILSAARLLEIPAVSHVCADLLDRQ

For `O=C(O)CC(C(=O)O)N1C(=O)/C(=C2/C(=O)Nc3ccc(Br)cc32)SC1=S` (stereo not drawn) [79–6], the Kd [1] is given as 129 µM.
For `CC(C)NC(=O)Cn1ccc2ccc(NC(=S)NCCc3c[nH]c4ccccc34)cc21` [Compound 7b, 2-(6-(3-(2-(1H-Indol-3-yl)ethyl)thioureido)-1H-indol-1-yl)-N-isopropylacetamide], the “improvement of 6PA value compared to compound 7a” value [2] was 3.7 fold.
In the case of `O=C(O)CNC(=O)Cn1ccc2ccc(NC(=S)NCCc3c[nH]c4ccccc34)cc21` [Compound 7i, (2-(6-(3-(2-(1H-Indol-3-yl)ethyl)thioureido)-1H-indol-1-yl)acetyl)glycine], the “effect on all seven lymphoma cell lines” value ([3]; at the concentration of 500 μM) is reported as “no effect” and the GI50 [4] is reported as over 500 µM.
With `COC(=O)Cn1cc(CN2CCN(C)CC2)c2ccc(NC(=S)NCCc3c[nH]c4ccccc34)cc21` [Compound 13, Methyl 2-(6-(3-(2-(1H-indol-3-yl)ethyl)thioureido)-3-((4-methylpiperazin-1-yl)methyl)-1H-indol-1-yl)acetate] the 6PA [2] was 363 Hz, the GI50 [4] was over 500 µM and the “cellular activity, SUDHL6 cells” value [5] was “weak cellular activity”.
For `CC(C)NC(=O)Cn1cc(CN2CCN(C)CC2)c2ccc(NC(=S)NCCc3c[nH]c4ccccc34)cc21` [Compound 15a, 2-(6-(3-(2-(1H-indol-3-yl)ethyl)thioureido)-3-((4-methylpiperazin-1-yl)methyl)-1H-indol-1-yl)-N-isopropylacetamide], the “effects in the cell killing assays” value [3] was “no effects” and the GI50 [4] was over 500 µM.
In the case of `CN1CCN(Cc2cn(CC(=O)NCC(=O)O)c3cc(NC(=S)NCCc4c[nH]c5ccccc45)ccc23)CC1` [Compound 15c, (2-(6-(3-(2-(1H-Indol-3-yl)ethyl)thioureido)-3-((4-methylpiperazin-1-yl)methyl)-1H-indol-1-yl)acetyl)glycine], the “effects in the cell killing assays” value [3] is reported as “no effects” and the GI50 [4] is reported as over 500 µM.
In the case of `CCN(CC)C(=O)Cn1cc(CN2CCN(C)CC2)c2ccc(NC(=S)NCCc3c[nH]c4ccccc34)cc21` [Compound 15d, 2-(6-(3-(2-(1H-Indol-3-yl)ethyl)thioureido)-3-((4-methylpiperazin-1-yl)methyl)-1H-indol-1-yl)-N,N-diethylacetamide], the 6PA [2] is reported as 390 Hz.
With `CN1CCN(Cc2cn(CC(=O)N3CCCCC3)c3cc(NC(=S)NCCc4c[nH]c5ccccc45)ccc23)CC1` [Compound 15e, 1-(2-(1H-Indol-3-yl)ethyl)-3-(3-((4-methylpiperazin-1-yl)methyl)-1-(2-oxo-2-(piperidin-1-yl)ethyl)-1H-indol-6-yl)thiourea] the GI50 ([3]; Homo sapiens, read-out: GI50 for BCL6-dependent lymphoma cells) was 33 to 103 µM, the “effect on all tested BCL6-independent lymphoma cells” value ([3]; at the concentration of 500 μM) was “no effect” and the GI50 [4] was over 500 µM.
With `CN1CCN(Cc2cn(CC(=O)N3CCOCC3)c3cc(NC(=S)NCCc4c[nH]c5ccccc45)ccc23)CC1` [Compound 15f, 1-(2-(1H-Indol-3-yl)ethyl)-3-(3-((4-methylpiperazin-1-yl)methyl)-1-(2-morpholino-2-oxoethyl)-1H-indol-6-yl)thiourea] the “binding to MIZ1 BTB domain” value [6] was “no interactions”, the “cellular activity, OCI-Ly7 cells” value [7] was “weak potency” and the “activity to other tested BCL6-dependent lymphoma cells” value ([3]; other than OCI-Ly7) was “no obvious activity”. For the same compound, the “improvement of affinity over 15a” value [8] was 6 fold, the “binding to LRF BTB domain” value [9] was “no interactions” and the GI50 [4] was over 500 µM. For the same compound, the “binding to KAISO BTB domain” value [10] was “no interactions”.
For `CC1CN(C(=O)Cn2cc(CN3CCN(C)CC3)c3ccc(NC(=S)NCCc4c[nH]c5ccccc45)cc32)CCO1` (stereo not drawn) [Compound 15g, 1-(2-(1H-Indol-3-yl)ethyl)-3-(1-(2-(2-methylmorpholino)-2-oxoethyl)-3-((4-methylpiperazin-1-yl)methyl)-1H-indol-6-yl)thiourea], the “cellular activity, OCI-Ly7 cells” value [7] was “only showed activity” and the GI50 [4] was over 500 µM.
